# Columns and labels:
# [1] = system: dsDNA; assay: Spectral fluorescent titration of the dyes with dsDNA in PBS; format: binding, chick; details: for Ifl/Ifl0, relative increase in the fluorescence intensity: cdsDNA = 1 × 10^−4 mol L^−1; for φfl^b, fluorescence quantum yield of the dye in the presence of biopolymer: cdsDNA~5 × 10^−5 mol L^−1; for KeffHill, effective complexation constant (Hill) / KeffBH, effective complexation constant (Benesi–Hildebrand): PBS buffer; for KeffBH, effective complexation constant (Benesi–Hildebrand): fluorescent titration; for αb, proportion of bound dye: cbiomol = 5 × 10^−5 mol L^−1; for K2Sc, complexation constant (Scatchard): constant and nSc both varied; for Fmax/F0, fluorescence growth at 100% binding: from the Benesi–Hildebrand dependence; for K1Sc, complexation constant (Scatchard): nSc = const = 10 b.p.
# Text: Complexation of MCD 1–4 with DNA (double-stranded and single-stranded) and with human serum albumin (HSA) was studied by spectral fluorescent methods in a wide range of biopolymer concentrations (cdsDNA = 0–1.5 × 10^−4 mol L^−1; cssDNA = 0–1.4 × 10^−4 mol L^−1; cHSA = 0–1.4 × 10^−4 mol L^−1 in PBS buffer). The absorption, fluorescence, and fluorescence excitation spectra of MCD 1 and 3 in the presence of dsDNA are shown in Figure 3 and Figure 4, respectively.
# The complication of chemical equilibrium, and the variety of interactions between MCD and biopolymer (dye aggregation/deaggregation, the possibility of forming complexes of several types with DNA/HSA) makes it problematic to determine the exact values of the complexation constants of the dyes with DNA. The values of the effective equilibrium constants of the complexation reaction of MCD with biopolymers (Keff, L mol^−1, see Table 7) were estimated from spectral fluorescent data. In this case, we had to assume a simple equilibrium MCD (monomer, free) ⇄ MCD (monomer, bound). For these purposes, we used the Benesi–Hildebrand [59], Hill, and Scatchard formalisms (See Supplementary Materials, Equations (S9)–(S13)). For dsDNA, fitting according to the modified Scatchard equation was carried out assuming one dye molecule per one DNA turn (K1Sc at nSc = const = 10 b.p.), as well as varying both the constant (K2Sc) and the stoichiometric coefficient (nSc). In the case of ssDNA, nSc is given per one base; for HSA, nSc = 1.
# (§1) Single-stranded form of DNA (single-stranded DNA; ssDNA) was obtained according to the method described in [74]. The concentrations of DNA and the dyes were controlled spectrophotometrically. Molar extinction coefficient of dsDNA (ε, L⋅mol^−1⋅cm^−1) was taken to be 13,200 L mol^−1 cm^−1 (per base pair); for ssDNA, ε = 9045 L mol^−1 cm^−1 (per one base) was used. For MCD 1 and 2 in an aqueous buffer solution, we used extinction coefficients ε = 40,000 and 68,000 L mol^−1 cm^−1, respectively, which were taken from. For MCD 3 and 4, the molar extinction coefficients in ethanol solution were 69,200 and 49,000 L mol^−1 cm^−1 (taken from). […] Spectral fluorescent characteristics of MCD in complexes with biomacromolecules were studied by titration of dye solutions (see Supplementary Materials). The thermal dissociation (“melting”) of dsDNA in the presence of MCD was studied spectrophotometrically (λabs = 260 nm), the sample was heated (t° = 30–95 °C) using Peltier cells, and the temperature was controlled using a thermocouple. Melting points tm, corresponding to 50% hyperchromia of DNA samples were obtained.
# Absorption spectra were recorded on an SF-2000 spectrophotometer (Experimental-Construction Company “Spectrum”, St. Petersburg, Russia); fluorescence and fluorescence excitation spectra were recorded on a Fluorat-02-Panorama spectrofluorimeter (Group of Companies “Lumex”, St. Petersburg, Russia). The fluorescence and fluorescence excitation spectra were corrected for the spectral characteristics of the instrument (excitation channel signal) and sample transmission. Changes in the intrinsic fluorescence of HSA upon binding of MCD (in the presence of the dyes) were recorded in the synchronous fluorescence scanning (SFS) mode. In SFS mode, when registering spectra, a fixed difference Δλ= λfl − λex is maintained for the channels of excitation and registration. Synchronous scanning spectra were obtained at Δλ = 15 nm (fluorescence of tyrosine residues in the HSA molecule) and Δλ = 60 nm (fluorescence of tryptophan). The spectra were measured in 1 cm quartz semi-micro cells (Bio-Rad, Hercules, CA, USA).
# The equilibrium constants of MCD complexation with biomolecules (Ka, L mol^−1) were obtained from fluorescence spectra using the Benesi–Hildebrand [59], Hill, and Scatchard equations [61] (see Supplementary Materials, Equations (S9)–(S13)). […]
# [2] = system: dsDNA; assay: Thermal dissociation (melting) of dsDNA in the presence of MCD; format: binding, chick; details: cdsDNA~6 × 10^−5 mol L^−1, cMCD~6 × 10^−6 mol L^−1; for Tm(dsDNA), melting point of dsDNA in the presence of MCD: without cyanines 80 °C
# Text: It is known that noncovalent ligand–dsDNA interactions upon the intercalative type of binding lead to additional stabilization of the biopolymer, which is reflected in an increase in the temperature range of thermal dissociation of the DNA double helix. From the data on the thermal dissociation of dsDNA, it is easy to obtain the melting point Tm(dsDNA) (at which 50% dsDNA is denatured). Note that Tm(dsDNA) depends on its GC composition, molecular length, and degree of strand complementarity; long duplexes with fewer base mismatches will have higher Tm(dsDNA) than short duplexes with more mismatches.
# Melting of the DNA double helix was measured spectrophotometrically at t = […], the normalized temperature dependences of the absorbances of the samples at λabs = 260 nm are shown in Figure 8.
# as §1
# [3] = cdsDNA = 1 × 10^−4 mol L^−1, compared to the initial spectra in PBS
SMILES,"Ifl/Ifl0, relative increase in the fluorescence intensity [1]","φfl^b, fluorescence quantum yield of the dye in the presence of biopolymer [1]",LOD ([1]; detection of dsDNA),LOD ([1]; dsDNA),LOQ ([1]; dsDNA),"nHill, Hill coefficient ([1]; dsDNA)","nSc, stoichiometric coefficient (Scatchard) ([1]; dsDNA)","KeffHill, effective complexation constant (Hill) ([1]; dsDNA)","KeffBH, effective complexation constant (Benesi–Hildebrand) ([1]; dsDNA)","αb, proportion of bound dye ([1]; dsDNA)","αb, proportion of bound dye ([1]; dsDNA, listed as 1)","K2Sc, complexation constant (Scatchard) ([1]; dsDNA)","Fmax/F0, fluorescence growth at 100% binding ([1]; dsDNA)","K1Sc, complexation constant (Scatchard) ([1]; dsDNA)",hypochromia of the absorption band ([1]; high concentrations of dsDNA),LOQ ([1]; quantification of dsDNA),"Tm(dsDNA), melting point of dsDNA in the presence of MCD [2]","hypochromia of the absorption band [1, 3]",growth of Tm(dsDNA) [2]
CC[N+](CC)(CC)CCC[n+]1ccc(/C=C2\Sc3ccccc3N2C)c2ccc(O)cc21 [MCD 1],about 425 times,13 ± 1.5%,7.2 nM,about 10^−8 mol L^−1,about 10^−8 mol L^−1,1.04,2,53400 L/mol,54000 L/mol,~80%,80%,169000 L/mol,460,793000 L/mol,8%,21 nM,85–86 °C,,
CCN1/C(=C/c2ccc3ccccc3[n+]2CC)C=Cc2ccccc21 [MCD 4],115 times,~1.5 ± 0.2%,94 nM,,,0.62,2,1850 L/mol,19500 L/mol,46%,,37000 L/mol,169,186000 L/mol,,210 nM,83 °C,36%,2–3 °C
CCN1/C(=C/c2sc3ccccc3[n+]2CC)Sc2ccccc21 [MCD 3],79 times,4.8 ± 0.5%,41 nM,,,0.88,35,6900 L/mol,13500 L/mol,40%,,480000 L/mol,136,135000 L/mol,,126 nM,82 °C,44%,2–3 °C
